Results: patent US5525626A (priority 1989, dated 1996)
Where two headings read alike, the source gives them in different places.

Experiments:
Experiment in all cases: 3H-thymidine assay
Type in all cases: cell-based
[1] = test system: Tp 242 MG glioblastoma cells; settings: Homo sapiens; for activity at 1 µM / activity at 2 µM / activity at 4 µM / activity at 8 µM / activity at 16 µM / activity at 25 µM / activity at 50 µM / activity at 100 µM / activity at 250 µM / activity at 500 µM: read-out: 3H-thymidine insertion (%) of control; for IC50: read-out: active substance concentration at which 3H-thymidine insertion was 50% inhibited
At T 20 = settings: Mus musculus
Outline: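 In this antiproliferative test, AtT20 cells were plated at 10^4 per well in 24-well plates and, once roughly half-confluent after approximately 48 hours, switched to medium containing compound. After two ice-cold PBS washes, incorporated label was precipitated with 5% trichloroacetic acid (one hour, 4° C), dissolved in 0.3M NaOH and measured. Thymidine insertion was compared with untreated controls to estimate growth inhibition.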

CAKI-1 cells = settings: Homo sapiens
Outline: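 Antiproliferative activity against CAKI-1 cells was measured by 3H-thymidine incorporation. After washing in PBS, precipitated radioactivity was solubilized in 0.3M NaOH and counted. Incorporation in substance-treated cells was compared with untreated controls to assess growth inhibition, and the substance concentration giving 50% inhibition of 3H-thymidine insertion was found.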

[2] = test system: MCF-7 breast cancer cells; settings: Homo sapiens
Outline: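 MCF-7 cells were plated at 10^4 cells per well in 24-well plates and, once roughly half-confluent after approximately 48 hours, exposed to compound-containing medium. Growth inhibition was assessed from 3H-thymidine insertion relative to untreated controls: cultures were washed twice in ice-cold PBS, acid-insoluble label was precipitated with 5% trichloroacetic acid (one hour, 4° C), dissolved in 0.3M NaOH and counted. The concentration giving 50% inhibition of insertion was determined.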

A-375 melanoma cells = settings: Homo sapiens
[3] = AtT20, read-out: 3H-thymidine tracer (%) of control
[4] = CAKI-1, read-out: 3H-thymidine tracer (%) of control
[5] = MCF7, read-out: 3H-thymidine tracer (%) of control
[6] = A-375, read-out: 3H-thymidine tracer (%) of control

For COc1cc2ccc(=O)oc2cc1O [Scopoletin, 6-methoxy-7-hydroxy-1,2-benzopyrone], the activity at 1 µM ([1]; 1 μM/ml) was 99%, the activity at 2 µM ([1]; 2 μM/ml) was 93% and the activity at 4 µM ([1]; 4 μM/ml) was 85%. It also gave an activity at 8 µM ([1]; 8 μM/ml) of 87%, an activity at 16 µM ([1]; 16 μM/ml) of 84% and an activity at 25 µM ([1]; 25 μM/ml) of 79%. The activity at 50 µM ([1]; 50 μM/ml) was 74%, the activity at 100 µM ([1]; 100 μM/ml) was 61% and the activity at 250 µM ([1]; 250 μM/ml) was 52%. For the same compound, the activity at 500 µM ([1]; 500 μM/ml) was 48%, the IC50 ([1]; Table 4) was 500 µM and the activity at 1 µM (At T 20; AtT20, 1 μM/ml, read-out: 3H-thymidine tracer (%) of control) was 98%. For the same compound, the activity at 2 µM (At T 20; AtT20, 2 μM/ml, read-out: 3H-thymidine tracer (%) of control) was 94%, the activity at 4 µM (At T 20; AtT20, 4 μM/ml, read-out: 3H-thymidine tracer (%) of control) was 89% and the activity at 8 µM (At T 20; AtT20, 8 μM/ml, read-out: 3H-thymidine tracer (%) of control) was 84%. The activity at 16 µM (At T 20; AtT20, 16 μM/ml, read-out: 3H-thymidine tracer (%) of control) was 76%, the activity at 25 µM (At T 20; AtT20, 25 μM/ml, read-out: 3H-thymidine tracer (%) of control) was 68% and the activity at 50 µM (At T 20; AtT20, 50 μM/ml, read-out: 3H-thymidine tracer (%) of control) was 62%. The activity at 100 µM (At T 20; AtT20, 100 μM/ml, read-out: 3H-thymidine tracer (%) of control) was 57%, the activity at 250 µM (At T 20; AtT20, 250 μM/ml, read-out: 3H-thymidine tracer (%) of control) was 49% and the activity at 500 µM (At T 20; AtT20, 500 μM/ml, read-out: 3H-thymidine tracer (%) of control) was 43%. It also gave an IC50 (At T 20; AtT20, Table 4, read-out: active substance concentration at which 3H-thymidine insertion was 50% inhibited) of 250 µM, an activity at 1 µM (CAKI-1 cells; CAKI-1, 1 μM/ml, read-out: 3H-thymidine tracer (%) of control) of 100% and an activity at 2 µM (CAKI-1 cells; CAKI-1, 2 μM/ml, read-out: 3H-thymidine tracer (%) of control) of 98%. For the same compound, the activity at 4 µM (CAKI-1 cells; CAKI-1, 4 μM/ml, read-out: 3H-thymidine tracer (%) of control) was 87%, the activity at 8 µM (CAKI-1 cells; CAKI-1, 8 μM/ml, read-out: 3H-thymidine tracer (%) of control) was 81% and the activity at 16 µM (CAKI-1 cells; CAKI-1, 16 μM/ml, read-out: 3H-thymidine tracer (%) of control) was 80%. It also gave an activity at 25 µM (CAKI-1 cells; CAKI-1, 25 μM/ml, read-out: 3H-thymidine tracer (%) of control) of 73%, an activity at 50 µM (CAKI-1 cells; CAKI-1, 50 μM/ml, read-out: 3H-thymidine tracer (%) of control) of 69% and an activity at 100 µM (CAKI-1 cells; CAKI-1, 100 μM/ml, read-out: 3H-thymidine tracer (%) of control) of 67%. It also gave an activity at 150 µM (CAKI-1 cells; CAKI-1, 150 μM/ml, read-out: 3H-thymidine tracer (%) of control) of 62%, an activity at 500 µM (CAKI-1 cells; CAKI-1, 500 μM/ml, read-out: 3H-thymidine tracer (%) of control) of 55% and an IC50 (CAKI-1 cells; CAKI-1, Table 4, *: maximum usable dosage, no 50% inhibition, read-out: active substance concentration at which 3H-thymidine insertion was 50% inhibited) greater than 500 µM. For the same compound, the activity at 1 µM ([2]; MCF7, 1 μM/ml, read-out: 3H-thymidine tracer (%) of control) was 100%, the activity at 2 µM ([2]; MCF7, 2 μM/ml, read-out: 3H-thymidine tracer (%) of control) was 97% and the activity at 4 µM ([2]; MCF7, 4 μM/ml, read-out: 3H-thymidine tracer (%) of control) was 94%. It also gave an activity at 8 µM ([2]; MCF7, 8 μM/ml, read-out: 3H-thymidine tracer (%) of control) of 86%, an activity at 16 µM ([2]; MCF7, 16 μM/ml, read-out: 3H-thymidine tracer (%) of control) of 81% and an activity at 25 µM ([2]; MCF7, 25 μM/ml, read-out: 3H-thymidine tracer (%) of control) of 76%. The activity at 50 µM ([2]; MCF7, 50 μM/ml, read-out: 3H-thymidine tracer (%) of control) was 73%, the activity at 100 µM ([2]; MCF7, 100 μM/ml, read-out: 3H-thymidine tracer (%) of control) was 69% and the activity at 250 µM ([2]; MCF7, 250 μM/ml, read-out: 3H-thymidine tracer (%) of control) was 62%. It also gave an activity at 500 µM ([2]; MCF7, 500 μM/ml, read-out: 3H-thymidine tracer (%) of control) of 54%, an IC50 ([2]; MCF7, Table 4, *: maximum usable dosage, no 50% inhibition, read-out: active substance concentration at which 3H-thymidine insertion was 50% inhibited) greater than 500 µM and an activity at 1 µM (A-375 melanoma cells; A-375, 1 μM/ml, read-out: 3H-thymidine tracer (%) of control) of 99%. The activity at 2 µM (A-375 melanoma cells; A-375, 2 μM/ml, read-out: 3H-thymidine tracer (%) of control) was 96%, the activity at 4 µM (A-375 melanoma cells; A-375, 4 μM/ml, read-out: 3H-thymidine tracer (%) of control) was 90% and the activity at 8 µM (A-375 melanoma cells; A-375, 8 μM/ml, read-out: 3H-thymidine tracer (%) of control) was 89%. For the same compound, the activity at 25 µM (A-375 melanoma cells; A-375, 25 μM/ml, read-out: 3H-thymidine tracer (%) of control) was 87%, the activity at 50 µM (A-375 melanoma cells; A-375, 50 μM/ml, read-out: 3H-thymidine tracer (%) of control) was 78% and the activity at 100 µM (A-375 melanoma cells; A-375, 100 μM/ml, read-out: 3H-thymidine tracer (%) of control) was 75%. It also gave an activity at 250 µM (A-375 melanoma cells; A-375, 250 μM/ml, read-out: 3H-thymidine tracer (%) of control) of 75%, an activity at 500 µM (A-375 melanoma cells; A-375, 500 μM/ml, read-out: 3H-thymidine tracer (%) of control) of 70% and an IC50 (A-375 melanoma cells; A-375, Table 4, *: maximum usable dosage, no 50% inhibition, read-out: active substance concentration at which 3H-thymidine insertion was 50% inhibited) greater than 500 µM.

For O=c1ccc2cc(O[C@@H]3O[C@H](CO)[C@@H](O)[C@H](O)[C@H]3O)c(O)cc2o1 [Esculin, 6-beta-D-glucopyranosyloxy-7-hydroxy-1,2-benzopyrone], the activity at 1 µM [1] was 100%, the activity at 2 µM [1] was 98% and the activity at 4 µM [1] was 95%. For the same compound, the activity at 8 µM [1] was 81%, the activity at 16 µM [1] was 73% and the activity at 25 µM [1] was 68%. For the same compound, the activity at 50 µM [1] was 65%, the activity at 100 µM [1] was 61% and the activity at 250 µM [1] was 53%. For the same compound, the activity at 500 µM [1] was 49%, the IC50 [1] was 500 µM and the activity at 1 µM (At T 20; [3]) was 100%. The activity at 2 µM (At T 20; [3]) was 94%, the activity at 4 µM (At T 20; [3]) was 89% and the activity at 8 µM (At T 20; [3]) was 83%. The activity at 16 µM (At T 20; [3]) was 72%, the activity at 25 µM (At T 20; [3]) was 69% and the activity at 50 µM (At T 20; [3]) was 64%. For the same compound, the activity at 100 µM (At T 20; [3]) was 58%, the activity at 250 µM (At T 20; [3]) was 49% and the activity at 500 µM (At T 20; [3]) was 44%. It also gave an IC50 (At T 20; AtT20, read-out: active substance concentration at which 3H-thymidine insertion was 50% inhibited) of 250 µM, an activity at 1 µM (CAKI-1 cells; [4]) of 100% and an activity at 2 µM (CAKI-1 cells; [4]) of 94%. The activity at 4 µM (CAKI-1 cells; [4]) was 92%, the activity at 8 µM (CAKI-1 cells; [4]) was 83% and the activity at 16 µM (CAKI-1 cells; [4]) was 78%. For the same compound, the activity at 25 µM (CAKI-1 cells; [4]) was 74%, the activity at 50 µM (CAKI-1 cells; [4]) was 65% and the activity at 100 µM (CAKI-1 cells; [4]) was 60%. For the same compound, the activity at 150 µM (CAKI-1 cells; [4]) was 53%, the activity at 500 µM (CAKI-1 cells; [4]) was 47% and the IC50 (CAKI-1 cells; CAKI-1, read-out: active substance concentration at which 3H-thymidine insertion was 50% inhibited) was 375 µM. The activity at 1 µM [2, 5] was 99%, the activity at 2 µM [2, 5] was 91% and the activity at 4 µM [2, 5] was 88%. The activity at 8 µM [2, 5] was 80%, the activity at 16 µM [2, 5] was 71% and the activity at 25 µM [2, 5] was 69%. The activity at 50 µM [2, 5] was 62%, the activity at 100 µM [2, 5] was 51% and the activity at 250 µM [2, 5] was 49%. The activity at 500 µM [2, 5] was 42%, the IC50 ([2]; MCF7, read-out: active substance concentration at which 3H-thymidine insertion was 50% inhibited) was greater than 100 µM and the activity at 1 µM (A-375 melanoma cells; [6]) was 100%. The activity at 2 µM (A-375 melanoma cells; [6]) was 96%, the activity at 4 µM (A-375 melanoma cells; [6]) was 93% and the activity at 8 µM (A-375 melanoma cells; [6]) was 87%. The activity at 16 µM (A-375 melanoma cells; [6]) was 82%, the activity at 25 µM (A-375 melanoma cells; [6]) was 78% and the activity at 50 µM (A-375 melanoma cells; [6]) was 71%. It also gave an activity at 100 µM (A-375 melanoma cells; [6]) of 64%, an activity at 250 µM (A-375 melanoma cells; [6]) of 60% and an activity at 500 µM (A-375 melanoma cells; [6]) of 57%. It also gave an IC50 (A-375 melanoma cells; A-375, read-out: active substance concentration at which 3H-thymidine insertion was 50% inhibited) greater than 500 µM.
